Experimental data: patent publication US5994375A, “Benzamidine derivatives substituted by amino acid and hydroxy acid derivatives and their use as anti-coagulants” (Berlex Laboratories, Inc., priority 1996, dated 1999)
Square brackets hold non-standard residues; d marks the D form. Peptide text beside a SMILES is read from it. * marks the point of attachment. pNA = O=[N+]([O-])c1ccc(N*)cc1

Legend:
[1] = biological target: T1, Human tissue plasminogen activator (tPA) (Two chains, Sigma) (Homo sapiens, UniProt P00750); assay: In vitro chromogenic assay for tissue plasminogen activator (cleavage of peptide p-nitroanilide S2288); type: biochemical; settings: substrate concentration stated equal to its Km under the assay conditions; 10 nM tPA, pH 7.5, ambient temperature
T1 construct: purchased Sigma
T1 sequence (P00750 311-562 limits assumed): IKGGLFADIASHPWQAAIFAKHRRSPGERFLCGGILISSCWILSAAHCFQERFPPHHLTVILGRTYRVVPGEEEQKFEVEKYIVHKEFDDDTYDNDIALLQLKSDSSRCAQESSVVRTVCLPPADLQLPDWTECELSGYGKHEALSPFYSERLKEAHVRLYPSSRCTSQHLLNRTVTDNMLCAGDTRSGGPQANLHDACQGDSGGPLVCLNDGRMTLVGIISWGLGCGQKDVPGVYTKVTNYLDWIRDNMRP
T1 sequence (P00750 36-310 partner limits assumed): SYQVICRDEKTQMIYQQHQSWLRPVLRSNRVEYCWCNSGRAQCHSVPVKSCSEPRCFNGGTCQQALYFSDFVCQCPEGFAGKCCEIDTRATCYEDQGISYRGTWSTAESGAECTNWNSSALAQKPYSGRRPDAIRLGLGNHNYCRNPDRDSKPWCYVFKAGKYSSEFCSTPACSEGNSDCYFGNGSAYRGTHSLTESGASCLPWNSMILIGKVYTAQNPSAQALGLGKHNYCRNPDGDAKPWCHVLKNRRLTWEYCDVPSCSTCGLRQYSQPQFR
Method: (§1) The activities were determined as an initial rate of cleavage of the peptide p-nitroanilide by the enzyme. The cleavage product, p-nitroaniline, absorbs at 405 nm with a molar extinction coefficient of 9920 M^-1 cm^-1.
(§2) 50 mM TrisHCl, 150 mM NaCl, 2.5 mM CaCl2, and 0.1% polyethylene glycol 6000, pH 7.5.
3. Human tissue plasminogen activator (tPA) (Two chains, Sigma) stock solution: 1 mg/mL, stored at -80° C. (working solution (2×): 1361 ng/mL in assay buffer, prepare prior to use).
3. S2288 (tPA assay) stock solution: 10 mM in dH2 O, stored at 4° C. (working solution (4×): 1484 μM in assay buffer).
(§3) Assays were performed in 96-well microtiter plates in a total volume of 200 μl. […] Concentrations of the standard inhibitor compound in the assay were from 5 μM to 0.021 μM in 1 to 3 dilution. Concentration of the test compounds in the assay typically were from 10 μM to 0.041 μM in 1 to 3 dilution. For potent test compounds, the concentrations used in the factor Xa assay were further diluted 100 fold (100 nM to […]) or 1000 fold (10 nM to 0.041 nM). All substrate concentrations used are equal to their Km values under the present assay conditions. Assays were performed at ambient temperature. […]
(§4) The enzyme kinetics were measured at 405 nm at 10 seconds intervals for five minutes in a THERMOmax plate reader at ambient temperature.

Human thrombin = biological target: T2, Human thrombin (Homo sapiens, UniProt P00734); assay: In vitro chromogenic assay for thrombin (cleavage of peptide p-nitroanilide S2302); type: biochemical; settings: substrate concentration stated equal to its Km under the assay conditions; 20 nM thrombin, pH 7.5, ambient temperature
T2 construct: Human thrombin stock solution; purchased Enzyme Research Lab
Method: as §1, §2
2. Human thrombin stock solution: Stored at -80° C. (working solution (2×): 1200 ng/mL or 40 nM in assay buffer, prepare prior to use).
2. S2302 (Thrombin assay) stock solution: 10 mM in dH2 O, stored at 4° C. (working solution (4×): 1200 μM in assay buffer).
as §3, with “nM).” for “nM). All substrate concentrations used are equal to their Km values under the present assay conditions. Assays were performed at ambient temperature.”
as §4
Enzyme rates were calculated as mOD/min based on the first two minutes readings. The IC50 values were determined by fitting the data to the log-logit equation (linear) or the Morrison equation (non-linear) with an EXCEL spread-sheet. […]

SMILES	Km [1]	Km (Human thrombin)
CC[C@@H](C)[C@@H](N)C(=O)N1CCC[C@H]1C(=O)N[C@@H](CCCN=C(N)N)C(=O)Nc1ccc([N+](=O)[O-])cc1 [Example S2288] (H-[dI]-Pro-Arg-pNA)	371 µM	–
N=C(N)NCCC[C@H](NC(=O)[C@H](Cc1ccccc1)NC(=O)[C@H]1CCCN1)C(=O)Nc1ccc([N+](=O)[O-])cc1 [Example S2302] (H-[dP]-Phe-Arg-pNA)	–	300 µM
